Reference: US7947717B2 (priority 2008, dated 2011)
Read-outs that look alike come from different tables or passages of the source.

Legend:
lethal factor (LF) = lethal factor (LF) (Bacillus anthracis, UniProt P15917); assay: biochemical; assay type: biochemical
BoNT A = BoNT A (Clostridium botulinum, UniProt P0DPI0); assay: biochemical
BoNT A, sequence (P0DPI0 whole entry, looked up): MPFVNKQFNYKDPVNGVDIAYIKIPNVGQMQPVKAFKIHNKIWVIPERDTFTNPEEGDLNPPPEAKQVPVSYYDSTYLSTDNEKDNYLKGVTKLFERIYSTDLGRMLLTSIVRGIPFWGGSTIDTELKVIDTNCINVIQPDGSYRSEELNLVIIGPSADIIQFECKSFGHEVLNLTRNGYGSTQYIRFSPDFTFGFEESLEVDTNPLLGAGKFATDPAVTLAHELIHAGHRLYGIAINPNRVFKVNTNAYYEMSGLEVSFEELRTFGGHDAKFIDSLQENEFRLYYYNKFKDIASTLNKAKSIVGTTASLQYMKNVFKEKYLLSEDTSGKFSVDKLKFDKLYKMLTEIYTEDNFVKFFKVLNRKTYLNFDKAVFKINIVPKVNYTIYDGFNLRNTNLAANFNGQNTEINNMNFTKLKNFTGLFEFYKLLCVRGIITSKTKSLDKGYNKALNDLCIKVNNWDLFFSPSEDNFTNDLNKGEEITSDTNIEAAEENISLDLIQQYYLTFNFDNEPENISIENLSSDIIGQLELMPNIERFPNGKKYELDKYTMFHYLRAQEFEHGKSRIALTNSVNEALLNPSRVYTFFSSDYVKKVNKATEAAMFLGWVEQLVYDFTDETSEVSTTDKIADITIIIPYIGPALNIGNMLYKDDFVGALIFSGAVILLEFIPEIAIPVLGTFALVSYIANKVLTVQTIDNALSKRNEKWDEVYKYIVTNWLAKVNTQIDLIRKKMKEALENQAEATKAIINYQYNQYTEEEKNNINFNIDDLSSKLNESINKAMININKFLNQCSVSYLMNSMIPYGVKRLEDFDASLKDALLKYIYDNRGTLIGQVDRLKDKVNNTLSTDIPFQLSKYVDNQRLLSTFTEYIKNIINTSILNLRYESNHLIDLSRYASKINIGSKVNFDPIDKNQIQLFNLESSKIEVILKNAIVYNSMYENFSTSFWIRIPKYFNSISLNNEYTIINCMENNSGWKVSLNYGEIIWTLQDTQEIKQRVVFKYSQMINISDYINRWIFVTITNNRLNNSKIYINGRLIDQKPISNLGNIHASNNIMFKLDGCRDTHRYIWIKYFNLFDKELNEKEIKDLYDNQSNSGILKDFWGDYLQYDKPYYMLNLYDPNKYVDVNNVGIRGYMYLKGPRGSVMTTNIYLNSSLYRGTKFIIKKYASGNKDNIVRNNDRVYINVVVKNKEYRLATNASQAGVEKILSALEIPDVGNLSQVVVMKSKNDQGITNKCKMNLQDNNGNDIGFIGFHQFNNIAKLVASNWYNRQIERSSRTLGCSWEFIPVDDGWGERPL

lethal factor (LF), sequence (P15917 34-809 limits assumed): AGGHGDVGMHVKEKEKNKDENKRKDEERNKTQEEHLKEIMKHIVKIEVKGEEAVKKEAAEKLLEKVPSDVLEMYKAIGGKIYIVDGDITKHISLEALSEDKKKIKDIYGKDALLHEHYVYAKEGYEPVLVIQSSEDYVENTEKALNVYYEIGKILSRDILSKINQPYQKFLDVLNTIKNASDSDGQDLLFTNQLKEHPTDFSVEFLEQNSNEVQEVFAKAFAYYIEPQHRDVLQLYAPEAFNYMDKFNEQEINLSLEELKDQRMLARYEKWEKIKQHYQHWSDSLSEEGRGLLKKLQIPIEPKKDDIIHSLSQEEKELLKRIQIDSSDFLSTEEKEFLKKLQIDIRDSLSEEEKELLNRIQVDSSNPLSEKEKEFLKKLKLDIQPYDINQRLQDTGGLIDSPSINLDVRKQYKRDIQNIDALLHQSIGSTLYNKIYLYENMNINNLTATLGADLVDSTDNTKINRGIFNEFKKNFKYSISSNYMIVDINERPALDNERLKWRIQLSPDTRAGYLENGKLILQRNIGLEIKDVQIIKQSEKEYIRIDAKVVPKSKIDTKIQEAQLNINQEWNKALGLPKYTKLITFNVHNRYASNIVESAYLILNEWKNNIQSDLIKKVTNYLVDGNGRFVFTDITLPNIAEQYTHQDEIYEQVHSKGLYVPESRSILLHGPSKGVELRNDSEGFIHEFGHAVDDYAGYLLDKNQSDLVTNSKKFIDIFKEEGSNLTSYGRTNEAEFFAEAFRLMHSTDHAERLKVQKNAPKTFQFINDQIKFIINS

Row | SMILES | IC50 (lethal factor (LF); pH 7.4, read-out: LF IC50) [µM] | IC50 (BoNT A) [µM] | also measured
1 | CN(CCOc1ccc(CC2SC(=O)NC2=O)cc1)c1ccccn1 (stereo not shown) [Compound 2, 5-(4-(2-(methyl(pyridin-2-yl)amino)ethoxy)benzyl)thiazolidine-2,4-dione, reference compound] | – | – | inhibition of LF, kinetic assay (in words) (lethal factor (LF)): did not appreciably inhibit; inhibition of BoNT A, kinetic assay (in words) (BoNT A): did not appreciably inhibit
2 | O=C(O)CN1C(=O)/C(=C/c2ccc(-c3ccc([N+](=O)[O-])cc3Cl)o2)SC1=S [Compound 4] | 2.1 | 11.8 | –
3 | O=C(O)CC(C(=O)O)N1C(=O)/C(=C/c2ccc(-c3ccc(Br)cc3)o2)SC1=S (stereo not shown) [Compound 5] | 3.98 | 51.6 | –
4 | O=C(O)CCC(C(=O)O)N1C(=O)/C(=C/c2ccc(-c3ccc([N+](=O)[O-])cc3)o2)SC1=S (stereo not shown) [Compound 6] | 4.91 | 148 | –
5 | O=C(O)C(c1ccccc1)N1C(=O)/C(=C/c2ccc(-c3cccc(Cl)c3)o2)SC1=S (stereo not shown) [Compound 8] | 4.34 | 127 | –
6 | O=C1/C(=C/c2ccc(-c3cccc([N+](=O)[O-])c3)o2)SC(=S)N1CCS(=O)(=O)O [Compound 9, (Z)-2-(5-((5-(3-nitrophenyl)furan-2-yl)methylene)-4-oxo-2-thioxothiazolidin-3-yl)ethanesulfonic acid] | 1.09 | – | Ki (lethal factor (LF)): 0.1 µM
7 | O=C1/C(=C/c2ccc(-c3cccc(Cl)c3)o2)SC(=S)N1CCS(=O)(=O)O [Compound 10, (Z)-2-(5-((5-(3-chlorophenyl)furan-2-yl)methylene)-4-oxo-2-thioxothiazolidin-3-yl)ethanesulfonic acid] | 1.7 | 19.9 | –
8 | O=C1/C(=C/c2ccc(-c3ccc(Cl)c(Cl)c3)o2)SC(=S)N1CCS(=O)(=O)O [Compound 11, (Z)-2-(5-((5-(3,4-dichlorophenyl)furan-2-yl)methylene)-4-oxo-2-thioxothiazolidin-3-yl)ethanesulfonic acid] | 1.78 | 11.1 | –
9 | O=C1/C(=C/c2ccc(-c3ccc(Cl)cc3)o2)SC(=S)N1CCS(=O)(=O)O [Compound 12, (Z)-2-(5-((5-(4-chlorophenyl)furan-2-yl)methylene)-4-oxo-2-thioxothiazolidin-3-yl)ethanesulfonic acid] | – | > 200 | –
10 | O=C(O)C(c1ccccc1)N1C(=O)/C(=C/c2ccc(-c3ccc(Cl)cc3Cl)o2)SC1=S (stereo not shown) [Compound 13] | 1.2 | > 200 | Ki (lethal factor (LF)): 1 µM
11 | O=C1/C(=C/c2ccc(-c3cccc(Cl)c3Cl)o2)SC(=S)N1C1CCS(=O)(=O)C1 (stereo not shown) [Compound 14, (5Z)-5-{[5-(2,3-dichlorophenyl)-2-furyl]methylene}-3-(1,1-dioxidotetrahydrothien-3-yl)-2-thioxo-1,3-thiazolidin-4-one] | – | > 200 | –
12 | O=C1/C(=C/c2ccc(-c3cc(Cl)ccc3Cl)o2)SC(=S)N1CC1CCCO1 (stereo not shown) [Compound 16, (Z)-5-((5-(2,5-dichlorophenyl)furan-2-yl)methylene)-3-((tetrahydrofuran-2-yl)methyl)-2-thioxothiazolidin-4-one] | – | > 50 | –
13 | Cc1nc(/C=C2\SC(=S)N(CC(=O)O)C2=O)c(C)o1 [Compound 17, (Z)-2-(5-((2,5-dimethyloxazol-4-yl)methylene)-4-oxo-2-thioxothiazolidin-3-yl)acetic acid] | 100 | > 200 | –
14 | CC(C)(C)OC(=O)N1CCC(c2nc(/C=C3\SC(=S)N(CC(=O)O)C3=O)cs2)CC1 [Compound 18, (Z)-2-(5-((2-(1-(tert-butoxycarbonyl)piperidin-4-yl)thiazol-4-yl)methylene)-4-oxo-2-thioxothiazolidin-3-yl)acetic acid] | 20 | 176 | –
15 | Cc1nc(-c2ccccc2)c(/C=C2\SC(=S)N(CC(=O)O)C2=O)s1 [Compound 19, (Z)-2-(5-((2-methyl-4-phenylthiazol-5-yl)methylene)-4-oxo-2-thioxothiazolidin-3-yl)acetic acid] | 41 | > 200 | –
16 | O=C(O)CN1C(=O)/C(=C/c2c[nH]nc2-c2ccc(C(F)(F)F)cc2)SC1=S [Compound 27, (Z)-2-(4-oxo-2-thioxo-5-((3-(4-(trifluoromethyl)phenyl)-1H-pyrazol-4-yl)methylene)thiazolidin-3-yl)acetic acid] | – | > 200 | IC50 (lethal factor (LF)): 24.6 µM
17 | O=C(O)CN1C(=O)/C(=C/c2cc(-c3ccc(Cl)cc3)[nH]n2)SC1=S [Compound 28] | – | > 200 | IC50 (lethal factor (LF)): > 100 µM
18 | O=C(O)CN1C(=O)/C(=C/c2cn(-c3ccccc3)nc2-c2cccs2)SC1=S [Compound 29, (Z)-2-(4-oxo-5-((1-phenyl-3-(thiophen-2-yl)-1H-pyrazol-4-yl)methylene)-2-thioxothiazolidin-3-yl)acetic acid] | 3.07 | 160 | –
19 | O=C(O)CN1C(=O)/C(=C/c2cn(-c3ccccc3)nc2-c2ccccc2)SC1=S [Compound 30, (Z)-2-(5-((1,3-diphenyl-1H-pyrazol-4-yl)methylene)-4-oxo-2-thioxothiazolidin-3-yl)acetic acid] | 6.25 | 111 | –
20 | O=C(O)CN1C(=O)/C(=C/c2cn(-c3ccccc3)nc2-c2ccc(S(=O)(=O)N3CCOCC3)cc2)SC1=S [Compound 31] | 4.26 | > 200 | –
21 | COc1ccc(-c2nn(-c3ccccc3)cc2/C=C2\SC(=S)N(CC(=O)O)C2=O)cc1C [Compound 36, (Z)-2-(5-((3-(4-methoxy-3-methylphenyl)-1-phenyl-1H-pyrazol-4-yl)methylene)-4-oxo-2-thioxothiazolidin-3-yl)acetic acid] | 3.58 | 127 | –
22 | CCOc1ccc(-c2nn(-c3ccccc3)cc2/C=C2\SC(=S)N(CC(=O)O)C2=O)c(C)c1 [Compound 37, (Z)-2-(5-((3-(4-ethoxy-2-methylphenyl)-1-phenyl-1H-pyrazol-4-yl)methylene)-4-oxo-2-thioxothiazolidin-3-yl)acetic acid] | 4.87 | 130 | –
23 | O=C1/C(=C/c2cn(-c3ccccc3)nc2-c2ccc(S(=O)(=O)N3CCOCC3)cc2)SC(=S)N1CCS(=O)(=O)O [Compound 42, (Z)-2-(5-((3-(4-(morpholinosulfonyl)phenyl)-1-phenyl-1H-pyrazol-4-yl)methylene)-4-oxo-2-thioxothiazolidin-3-yl)ethanesulfonic acid] | 1.86 | 85 | –
24 | O=C1/C(=C/c2cn(-c3ccccc3)nc2-c2ccc(S(=O)(=O)N3CCCCC3)cc2)SC(=S)N1CCS(=O)(=O)O [Compound 43, (Z)-2-(4-oxo-5-((1-phenyl-3-(4-(piperidin-1-ylsulfonyl)phenyl)-1H-pyrazol-4-yl)methylene)-2-thioxothiazolidin-3-yl)ethanesulfonic acid] | 2.07 | 20.1 | –
25 | O=C1/C(=C/c2cn(-c3ccccc3)nc2-c2ccccc2)SC(=S)N1C1CCS(=O)(=O)C1 (stereo not shown) [Compound 44, 3-(1,1-Dioxo-tetrahydro-thiophen-3-yl)-5-[1-(1,3-diphenyl-1H-pyrazol-4-yl)-meth-(Z)-ylidene]-2-thioxo-thiazolidin-4-one] | – | > 200 | –
26 | O=C1/C(=C/c2cn(-c3ccccc3)nc2-c2ccc(Cl)cc2)SC(=S)N1C1CCS(=O)(=O)C1 (stereo not shown) [Compound 45, 5-[1-[3-(4-Chloro-phenyl)-1-phenyl-1H-pyrazol-4-yl]-meth-(Z)-ylidene]-3-(1,1-dioxo-tetrahydro-thiophen-3-yl)-2-thioxo-thiazolidin-4-one] | – | > 200 | –
27 | CN1CCCN(c2ccc(/C=C3\SC(=S)N(CC(=O)O)C3=O)cc2)CC1 [Compound 51] | – | > 50 | –
